This is an account of results in patent publication US7666644B2, “Glyphosate-N-acetyltransferase (GAT) genes” (Verdia, Inc., priority 2004, dated 2010).

Data set [1] relates to high activity GAT enzymes (glyphosate-N-acetyltransferase). Briefly: Kinetics typical of high activity GAT enzymes (Example 5). The class given is biochemical.
Data set [2] deals with native or low activity GAT enzymes (glyphosate-N-acetyltransferase). Briefly: Kinetics typical of native or low activity GAT enzymes (Example 4). The class given is biochemical.
The target in data set [3] is T1, Bacillus licheniformis strain B6 glyphosate-N-acetyltransferase (GAT), native, SEQ ID NO:7 (Bacillus paralicheniformis, UniProt A0AAW6KBE1).
T1 construct: untagged
Briefly: Apparent KM and kcat of purified GAT (Example 2). The class given is biochemical.
Description: Lysis of the cells was effected by the addition of 1 ml of the following buffer to 0.2 g of cells: 25 mM HEPES, pH 7.3, 100 mM KCl and 10% methanol (HKM) plus 0.1 mM EDTA, 1 mM DTT, 1 mg/ml chicken egg lysozyme, and a protease inhibitor cocktail obtained from Sigma and used according to the manufacturer's recommendations. After 20 minutes incubation at room temperature (e.g., 22-25° C.), lysis was completed with brief sonication. The lysate was centrifuged and the supernatant was desalted by passage through Sephadex G25 equilibrated with HKM. Partial purification was obtained by affinity chromatography on CoA Agarose (Sigma). The column was equilibrated with HKM and the clarified extract was allowed to pass through under hydrostatic pressure.
Purification to homogeneity was obtained by gel filtration of the partially purified protein through Superdex 75 (Pharmacia).
Initial reaction rates were determined using mass spectrometric detection of N-acetyl glyphosate. Five μl were repeatedly injected into the instrument and reaction rates were obtained by plotting reaction time vs area of the integrated peak (FIG. 6).

For data set [4], the system named is GAT 20-30C6 (SEQ ID NO: 683) variant H138S. Briefly: GAT kinetics, 0 KCl, Bradford (Example 20, Table 12). The note with it: Bradford protein assay. The data set is classed as biochemical.
For data set [5], the system named is GAT polypeptide (glyphosate-N-acetyltransferase), SEQ ID NO:445. Description: Standard spectrophotometric kcat and KM determination (Example 7). The class given is biochemical. The note with it: 20 mM HEPES pH 6.8, 10% ethylene glycol, 0.2 mM acetyl CoA, about 23° C. How it is done:
(§1) KM was calculated from the initial reaction rates obtained from concentrations of glyphosate ranging from 0.125 to 10 mM, using the Lineweaver-Burke transformation of the Michaelis-Menten equation. kcat/KM was determined by dividing the value determined for kcat by the value determined for KM.

Data set [6] has as its system GAT 20-30C6 (SEQ ID NO: 683) variant H138A. Briefly: GAT kinetics, 0 KCl, Bradford (Example 20, Table 12). The data set is classed as biochemical. To be noted: Bradford protein assay. As to the method: as §1
(§2) The amino acids aspartic acid (Asp, D), histidine (His, H) and cysteine (Cys, C) are known to be associated with the active sites of various acetyltransferase enzymes. To determine if any such residues play a role in GAT activity, all D, C, and H residues of GAT20-30C6 (SEQ ID NO:683) were individually mutated to alanine (Ala, A) and the mutated enzymes assayed for N-acetylglyphosate activity.

The test system of data set [7] is GAT 20-30C6 (SEQ ID NO: 683) variant D34A. The data set is described as above. The class given is biochemical. The note with it: Bradford protein assay. As to the method: as §1, §2
The subject of data set [8] is GAT 20-30C6 (evolved glyphosate-N-acetyltransferase), SEQ ID NO: 683. Described as above. The data set is classed as biochemical. To be noted: Bradford protein assay. As to the method: as §1, §2
The test system of data set [9] is GAT 20-30C6 (SEQ ID NO: 683) variant H41A. The data set is described as above. The data set is classed as biochemical. To be noted: Bradford protein assay. How it is done: as §1, §2
Data set [10] has as its system GAT 20-30C6 (SEQ ID NO: 683) variant H138R. The description is as above. The note with it: Bradford protein assay. The class given is biochemical. As to the method: as §1, §2
In data set [11] the target is non-native GAT polypeptide 25-8H7 (glyphosate-N-acetyltransferase), SEQ ID NO: 907 (Bacillus licheniformis, UniProt Q65LG7, E119R/E14D/E65Q/E67K/E68K/G37R/G38S/I132T/I135V/I15L/I19V/I53V/I91V/K101R/K144R/K58Q/L105M/L106I/L145I/L26I/L36T/L97I/M75V/R47G/R92K/T33S/T89S/V114A/Y130F/Y31F/Y45F). Description: GAT activity with respect to glyphosate, aspartate and serine (Example 29, Table 21). To be noted: 25 mM Hepes, pH 6.8, 10% ethylene glycol.
non-native GAT polypeptide 25-8H7 (glyphosate-N-acetyltransferase), SEQ ID NO: 907, sequence (Q65LG7 entry or part of it with the stated changes): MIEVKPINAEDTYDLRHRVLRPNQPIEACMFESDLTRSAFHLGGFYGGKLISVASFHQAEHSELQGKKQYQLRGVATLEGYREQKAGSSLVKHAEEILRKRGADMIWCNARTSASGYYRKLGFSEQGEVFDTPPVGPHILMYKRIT

Data set [12] in a line: Kinetics of D, C, H residue mutants of GAT20-30C6. The class given is biochemical. The note with it: 0 KCl; Bradford protein assay.
Text: as §2

Data set [13] is described as follows: Transfer of the propionyl group from propionyl CoA to glyphosate, DTNB detection. The class given is biochemical. To be noted: 1 mM propionyl CoA, 5 mM glyphosate or no glyphosate, 30 minutes. As to the method:
The ability of GAT variants (B6 (SEQ ID NO:7), 0—6D10 (SEQ ID NO:448), 17-15H3 (SEQ ID NO:601), and 20-8H12c (SEQ ID NO:817)) to transfer the propionyl group from propionyl CoA to glyphosate was tested in reaction mixtures containing 5 mM glyphosate or no glyphosate. Propionyl CoA was present at 1 mM. After 30 minutes the reactions were terminated and the presence of free […] was determined by the addition of DTNB.

Data set [14] can be described thus: GAT activity with substrate phospho-L-serine (DTNB). The data set is classed as biochemical. As to the method:
GAT activity of several GAT polypeptides of the present invention was evaluated with respect to a number of amino acid substrates. The GAT polypeptide, AcCoA and amino substrate were incubated in 25 mM Hepes, pH 6.8, 10% ethylene glycol in the wells of a 96-well polystyrene plate. After 30 minutes, the reactions were stopped by the addition of 30 μl of 10 mM 5,5′-dithiobis-2-nitrobenzoate (DTNB) in 500 mM Tris, pH 7.5. After 2 minutes, absorbance was read at 412 nm in a Spectramax Plus plate reader (Molecular Devices, Sunnyvale, Calif.).

For the molecule `O=C(O)CNCP(=O)(O)O` [glyphosate, N-phosphonomethylglycine], the Michaelis constant (Km) in [1] is less than 100 µM; in data set [2] (read-out: KM for glyphosate), 1500 to 10000 µM; in [3] (read-out: KM for glyphosate, apparent, saturating (200 μM) Acetyl CoA, 5 mM morpholine pH 7.7, 20% ethylene glycol) it was 2900 ± 200 µM; in [4], 7100 µM; in data set [5], 500 µM; in data set [7] it was 2330 µM. The figures for the Michaelis constant (Km) in data set [8], in data set [9] and in data set [10] were 182 µM, 4800 µM and 17800 µM, respectively. Also, the kcat result in data set [1] was “up to 400 min^−1”; in data set [2], “approximately 1 min^−1”; in [3] (from Vmax at known enzyme concentration, 5 mM glyphosate, varying Acetyl CoA), 0.1 s⁻¹; in data set [4], 0.0892 s⁻¹; in [5], 5.37 s⁻¹; in data set [6] it was less than 0.00033 s⁻¹. For the same molecule, the kcat stood at 2.12 s⁻¹ in data set [7], 6.43 s⁻¹ in [8], 3.47 s⁻¹ in data set [9] and 0.738 s⁻¹ in [10].
For `N[C@@H](CO)C(=O)O` [Serine, L-serine], the “kcat ± SE” value in data set [11] was 6.47 ± 0.308 s⁻¹.

B1: 20-30C6: evolved GAT enzyme, SEQ ID NO:683 (protein)
chain: MIEVKPINAEDTYELRHRVLRPNQPIEACMFESDLLRGAFHLGGFYGGKLISVASFHQAEHTELQGQKQYQLRGVATLEGYREQKAGSSLVKHAEEILRKRGADILWCNARTSASGYYKKLGFSEQGEVFDTPPVGPHILMYKRIT
modifications: D_GE002283_GAT20-30C6
B1: in data set [12], the “% kcat/Km of 20-30C6” value was determined as 100%.

B2: B6: native GAT enzyme isolated from B. licheniformis strain B6, SEQ ID NO:7 (protein)
chain: MIEVKPINAEDTYEIRHRILRPNQPLEACKYETDLLGGTFHLGGYYRDRLISIASFHQAEHSELEGQKQYQLRGMATLEGYREQKAGSTLIRHAEELLRKKGADLLWCNARTSVSGYYKKLGFSEQGGVYDIPPIGPHILMYKKLT
modifications: Unidentified microorganism derived from soil sample.; B6 GAT
As for B2, in [13], the “glyphosate-dependent hydrolysis of propionyl CoA” value is on record as “showed glyphosate-dependent hydrolysis of propionyl CoA”. Moreover, the “activity with phospho-L-serine compared with glyphosate” value in data set [14] was “about 2 times”.
